Test results taken from patent US20250295679A1, “Compositions and Dosage Forms for Treatment of HPV Infection and HPV-Induced Neoplasia” (priority 2022, published 2025).
Where two headings read alike, the source gives them in different places.

Columns and labels:
[1] = Solubility in buffers, water and simulated vaginal fluid at 37° C.
Procedure: About 4 mg of Compound I Pattern 1 was added into 2 mL of buffer solution.
(§1) Solubility was tested in five media, pH 3.0 citrate buffer, pH 4.5 acetate buffer, pH 6.8 phosphate buffer, water, simulated vaginal fluid (pH 4.2) at 37° C. for 0.5 h and 2 h.
The salt amount used is equivalent to 10 mg anhydrous free base. […] The obtained clear solutions were analyzed by pH meter for pH, and solubility was determined by observation.
as §1

[2] = Hygroscopicity by DVS at 25° C.; assay type: physicochemical
Procedure: Hygroscopicity was investigated by DVS at 25° C., using the following method: • Method: 40-0-95-0-40% RH, dm/dt=0.002

[3] = Bulk (accelerated) stability, one week, HPLC and XRPD; conditions: for HPLC purity, Initial: initial chemical purity before storage
Procedure: Bulk stability: Accelerated stability experiments were conducted at 25° C./92% RH and 40° C./75% RH in an open container, 60° C. in a tight container for one week.
Samples were characterized by XRPD and HPLC and inspected for color change.
Accelerated stability experiments were conducted at 25° C./92% RH in an open container, at 40° C./75% RH in an open container, and at 60° C. in a tight container for one week.

[4] = Ex vivo permeation and penetration across porcine vaginal tissue (Franz diffusion cell, IVPT); assay type: in vitro ADME; design: Concentration in vaginal tissue: unit not given here
Text: FIG. 116 is an in vitro tissue permeation test in vaginal tissue comparing Compound II to ABI-1968. […] Bars B and C show the tissue penetration of a 0.1% Compound II gel in human cervical tissue. […] This may be a contributing factor to the performance of ABI-1968 in clinical studies. […] This is described in Example 41.
Freshly harvested porcine vaginal tissue was procured from local slaughterhouse in an ice box. The vaginal tissue was cut open to expose the mucosal surface and tissue was cleaned by gentle flow of PBS pH 7.4. The porcine vaginal tissue was cut into circular portions (approximately 2 cm^2) with help of a […] punch.
The circular portion of tissue was sandwiched between two chambers of a Franz diffusion cell with an active diffusion area of 1 cm^2, and the mucosal layer was exposed to the donor chambers. The resistance across porcine vaginal tissue was measured using a wave form generator to ensure the integrity of the tissue segment used for the permeation study. Porcine vaginal tissue with resistance of ≥3 KΩ·cm^2 was used for study. The receiver chamber was filled with 8 ml of 5% solutol PBS 7.4 pH, which was stirred at 600 rpm with a 3 mm magnetic stir bar and the temperature was maintained at 37° C. with a circulating water bath.
The ˜200 mg of gel was filled into tared 1 mL syringe and gel was dispensed to donor chamber. The gel was spread on to mucosal surface with pre weighed applicator. After loading and spreading of the gel onto surface of mucosal surface, the weight of 1 mL syringe and applicator was noted to determine the exact amount of gel loaded into donor chamber.
Time course (2 h, 4 h and 8 h) porcine vaginal permeation studies were performed. After loading gel, 500 μL samples were withdrawn from the receiver compartment at different time intervals and each time an equal volume of fresh receiver media was used to replace withdrawn samples. The sample withdrawn at each time interval were stored immediately in −20° C. until analysis. After 2, 4 and 8 h, the formulation was removed from the donor chamber with help of syringe and cleaned with cotton swab. The tissue was removed and washed gently with wash solution (50% methanol in water) 5 times and alternatively cleaning with cotton swab.
An 8 mm punch of active diffusion area of washed porcine vaginal tissue was removed, weighed and transferred into a tube. This tube was immediately placed into dry ice for ˜15 min. After specified time, tissue was removed and placed in precooled dish. The tissue was minced into smaller pieces on a dish with a precooled surgical blade. The minced tissue was transferred to sample tubes and dish was rinsed with 1 ml of 5% solutol in PBS 7.4 pH and transferred to same tissue sample tube. These tubes were stored in −70° C. until analysis. […]

[5] = 25° C., 92% RH, open container, one week

For `CCOC(=O)C(C)NP(=O)(COCCn1cnc2c(OC)nc(N)nc21)OCc1ccccc1.CCOC(=O)C(C)NP(=O)(COCCn1cnc2c(OC)nc(N)nc21)OCc1ccccc1.O=C(O)C=CC(=O)O` (mixture of isomers) [Compound I hemifumarate], the “Solubility 0.5 hrs” value [1] was greater than 2000 µg/mL, the “Solubility 2 hrs” value [1] was greater than 2000 µg/mL and the “Solubility 0.5 hrs” value ([1]; pH 3) was greater than 2000 µg/mL. The “Solubility 2 hrs” value ([1]; pH 3) was greater than 2000 µg/mL, the “Solubility 0.5 hrs” value ([1]; pH 4.2) was greater than 2000 µg/mL and the “Solubility 2 hrs” value ([1]; pH 4.2) was greater than 2000 µg/mL. For the same molecule, the “Solubility 0.5 hrs” value ([1]; pH 4.5) was greater than 2000 µg/mL, the “Solubility 2 hrs” value ([1]; pH 4.5) was greater than 2000 µg/mL and the “Solubility 0.5 hrs” value ([1]; pH 6.8) was greater than 2000 µg/mL. The “Solubility 2 hrs” value ([1]; pH 6.8) was greater than 2000 µg/mL, the “pH at 2 hrs” value ([1]; solution in simulated vaginal fluid (pH adjusted with 0.2N NaOH), 37° C.) was “(5.30)” and the “Desorption (%) Cycle 1” value ([2]; 0% RH, DVS 25° C.) was 0.13%. The “Desorption (%) Cycle 2” value ([2]; 0% RH, DVS 25° C.) was 0.00%, the “Sorption (%) Cycle 1” value ([2]; 0% RH, DVS 25° C.) was 0.13% and the “Sorption (%) Cycle 2” value ([2]; 0% RH, DVS 25° C.) was 0.00%. For the same molecule, the “Desorption (%) Cycle 1” value ([2]; 10% RH, DVS 25° C.) was 0.36%, the “Desorption (%) Cycle 2” value ([2]; 10% RH, DVS 25° C.) was 0.23% and the “Sorption (%) Cycle 1” value ([2]; 10% RH, DVS 25° C.) was 0.34%. For the same molecule, the “Sorption (%) Cycle 2” value ([2]; 10% RH, DVS 25° C.) was 0.20%, the “Desorption (%) Cycle 1” value ([2]; 20% RH, DVS 25° C.) was 0.56% and the “Desorption (%) Cycle 2” value ([2]; 20% RH, DVS 25° C.) was 0.44%. The “Sorption (%) Cycle 1” value ([2]; 20% RH, DVS 25° C.) was 0.53%, the “Sorption (%) Cycle 2” value ([2]; 20% RH, DVS 25° C.) was 0.40% and the “Desorption (%) Cycle 1” value ([2]; 30% RH, DVS 25° C.) was 0.79%. For the same molecule, the “Desorption (%) Cycle 2” value ([2]; 30% RH, DVS 25° C.) was 0.68%, the “Sorption (%) Cycle 1” value ([2]; 30% RH, DVS 25° C.) was 0.73% and the “Sorption (%) Cycle 2” value ([2]; 30% RH, DVS 25° C.) was 0.61%. For the same molecule, the “Desorption (%) Cycle 1” value ([2]; 40% RH, DVS 25° C.) was 1.04%, the “Desorption (%) Cycle 2” value ([2]; 40% RH, DVS 25° C.) was 0.94% and the “Sorption (%) Cycle 1” value ([2]; 40% RH, DVS 25° C.) was 0.96%. The “Sorption (%) Cycle 2” value ([2]; 40% RH, DVS 25° C.) was 0.87%, the “Desorption (%) Cycle 2” value ([2]; 50% RH, DVS 25° C.) was 1.26% and the “Sorption (%) Cycle 1” value ([2]; 50% RH, DVS 25° C.) was 1.22%. The “Desorption (%) Cycle 2” value ([2]; 60% RH, DVS 25° C.) was 1.68%, the “Sorption (%) Cycle 1” value ([2]; 60% RH, DVS 25° C.) was 1.57% and the “Desorption (%) Cycle 2” value ([2]; 70% RH, DVS 25° C.) was 2.25%. The “Sorption (%) Cycle 1” value ([2]; 70% RH, DVS 25° C.) was 2.04%, the “Desorption (%) Cycle 2” value ([2]; 80% RH, DVS 25° C.) was 3.14% and the “Sorption (%) Cycle 1” value ([2]; 80% RH, DVS 25° C.) was 2.80%. For the same molecule, the “Desorption (%) Cycle 2” value ([2]; 90% RH, DVS 25° C.) was 4.84%, the “Sorption (%) Cycle 1” value ([2]; 90% RH, DVS 25° C.) was 4.54% and the “Desorption (%) Cycle 2” value ([2]; 95% RH, DVS 25° C.) was 6.87%. For the same molecule, the “Sorption (%) Cycle 1” value ([2]; 95% RH, DVS 25° C.) was 6.87%, the “XRPD after DVS test” value ([2]; after humidity cycle 40-0-95-0-40% RH, 25° C.) was “No form change,” and the Water uptake ([2]; up to / in 95% RH, DVS 25° C.) was roughly 6.9%. The “HPLC purity after storage” value [3, 5] was 97.0%, the XRPD after storage [3, 5] was “No change” and the “HPLC purity after storage” value ([3]; 40° C., 75% RH, open container, one week) was 90.9%. The “HPLC purity after storage” value ([3]; 60° C., tight container, one week) was 82.3%, the “HPLC purity, Initial” value ([3]; listed as Compound I Hemifumarate Pattern 1) was 97.8% and the “HPLC purity, Initial” value ([3]; listed as Compound I hemifumarate Pattern 1) was 97.8%.

In the case of `CCCCCCCCCCCCCCCCCCOCCOP(=O)(COCCn1cnc2c(=O)[nH]c(N)nc21)OCc1ccccc1` (stereo not drawn) [ABI-1968], the “Concentration in vaginal tissue” value ([4]; 3% dose, FIG. 116) is reported as less than 15, the “Tissue penetration” value ([4]; porcine vaginal tissue, FIG. 116, 0.1% Compound II gel, 1% and 3% ABI-1968 formulations) is reported as “substantially smaller degree” and the Tissue concentration ([4]; up to a 3% dose, Bar F and G in FIG. 116) is reported as less than 15 ng/mg.
